Source: ChEMBL document CHEMBL5303573, “Mapping human microbiome drug metabolism by gut bacteria and their genes” (Nature, 2019)

Legend:
[1] = The drug is tested on Bifidobacterium longum subsp. Infantis strain: CCUG52486 for biotransformation. The drug concentrations were measured before and after a 12-h incubation by liquid-chromatography-coupled mass spectrometry (LC–MS); details: 2 µM
[2] = The drug is tested on Collinsella aerofaciens strain: ATCC25986 for biotransformation. The drug concentrations were measured before and after a 12-h incubation by liquid-chromatography-coupled mass spectrometry (LC–MS); details: 2 µM
[3] = The drug is tested on Bacteroides caccae strain: ATCC43185 for biotransformation. The drug concentrations were measured before and after a 12-h incubation by liquid-chromatography-coupled mass spectrometry (LC–MS); details: 2 µM
[4] = The drug is tested on Anaerococcus hydrogenalis strain: DSM7454 for biotransformation. The drug concentrations were measured before and after a 12-h incubation by liquid-chromatography-coupled mass spectrometry (LC–MS); details: 2 µM
[5] = The drug is tested on Clostridium sp. strain: fecal isolate for biotransformation. The drug concentrations were measured before and after a 12-h incubation by liquid-chromatography-coupled mass spectrometry (LC–MS); details: 2 µM
[6] = The drug is tested on Clostridium symbiosum strain: ATCC14940 for biotransformation. The drug concentrations were measured before and after a 12-h incubation by liquid-chromatography-coupled mass spectrometry (LC–MS); details: 2 µM
[7] = The drug is tested on Dorea formicigenerans strain: ATCC27755 for biotransformation. The drug concentrations were measured before and after a 12-h incubation by liquid-chromatography-coupled mass spectrometry (LC–MS); details: 2 µM
[8] = The drug is tested on Eubacterium ventriosum strain: ATCC27560 for biotransformation. The drug concentrations were measured before and after a 12-h incubation by liquid-chromatography-coupled mass spectrometry (LC–MS); format: ADME; parameters: dose 2 uM, timepoint 0 vs 12 hours; details: 2 µM
[9] = The drug is tested on Ruminococcus gnavus strain: ATCC29149 for biotransformation. The drug concentrations were measured before and after a 12-h incubation by liquid-chromatography-coupled mass spectrometry (LC–MS); details: mediterraneibacter gnavus, 2 µM
[10] = The drug is tested on Ruminococcus lactaris strain: ATCC29176 for biotransformation. The drug concentrations were measured before and after a 12-h incubation by liquid-chromatography-coupled mass spectrometry (LC–MS); details: 2 µM
[11] = The drug is tested on Subdoligranulum variabile strain: DSM15176 for biotransformation. The drug concentrations were measured before and after a 12-h incubation by liquid-chromatography-coupled mass spectrometry (LC–MS); details: 2 µM
[12] = The drug is tested on Edwardsiella tarda strain: ATCC23685 for biotransformation. The drug concentrations were measured before and after a 12-h incubation by liquid-chromatography-coupled mass spectrometry (LC–MS); details: 2 µM
[13] = bifidobacterium adolescentis, 12 h, 2 µM
Description: The drug is tested on Bifidobacterium adolescentis strain: ATCC 15703 for biotransformation. The drug concentrations were measured before and after a 12-h incubation by liquid-chromatography-coupled mass spectrometry (LC–MS)

[14] = bacteroides fragilis, 12 h, 2 µM
Description: The drug is tested on Bacteroides fragilis strain: NCTC 9343 for biotransformation. The drug concentrations were measured before and after a 12-h incubation by liquid-chromatography-coupled mass spectrometry (LC–MS)

[15] = bacteroides fragilis, 12 h, 2 µM; remark: listed apart in the source
Description: The drug is tested on Bacteroides fragilis strain: 3397 (T10) for biotransformation. The drug concentrations were measured before and after a 12-h incubation by liquid-chromatography-coupled mass spectrometry (LC–MS)

[16] = bacteroides fragilis, 12 h, 2 µM; remark: listed apart in the source
Description: The drug is tested on Bacteroides fragilis strain: DS-208 for biotransformation. The drug concentrations were measured before and after a 12-h incubation by liquid-chromatography-coupled mass spectrometry (LC–MS)

[17] = anaerostipes sp., 12 h, 2 µM
Description: The drug is tested on Anaerostipes sp. strain: fecal isolate for biotransformation. The drug concentrations were measured before and after a 12-h incubation by liquid-chromatography-coupled mass spectrometry (LC–MS)

[18] = The drug is tested on Bacteroides cellulosilyticus strain: DSM14838 for biotransformation. The drug concentrations were measured before and after a 12-h incubation by liquid-chromatography-coupled mass spectrometry (LC–MS); details: 2 µM
[19] = The drug is tested on Escherichia coli strain: BW25113 for biotransformation. The drug concentrations were measured before and after a 12-h incubation by liquid-chromatography-coupled mass spectrometry (LC–MS); details: 2 µM
[20] = parabacteroides distasonis, 12 h, 2 µM
Description: The drug is tested on Parabacteroides distasonis strain: ATCC8503 for biotransformation. The drug concentrations were measured before and after a 12-h incubation by liquid-chromatography-coupled mass spectrometry (LC–MS)

SMILES	Bacterial Biotransformation [1]	Bacterial Biotransformation [2]	Bacterial Biotransformation [3]	Bacterial Biotransformation [4]	Bacterial Biotransformation [5]	Bacterial Biotransformation [6]	Bacterial Biotransformation [7]	Bacterial Biotransformation [8]	Bacterial Biotransformation [9]	Bacterial Biotransformation [10]	Bacterial Biotransformation [11]	Bacterial Biotransformation [12]	Bacterial Biotransformation [13]	Bacterial Biotransformation [14]	Bacterial Biotransformation [15]	Bacterial Biotransformation [16]	Bacterial Biotransformation [17]	Bacterial Biotransformation [18]	Bacterial Biotransformation [19]	Bacterial Biotransformation [20]
O=P(O)(O)O.c1ccc(CN(CC2=NCCN2)c2ccccc2)cc1 [ANTAZOLINE PHOSPHATE]	Compound NOT metabolized	Compound NOT metabolized	Compound NOT metabolized	Compound NOT metabolized	Compound NOT metabolized	Compound NOT metabolized	Compound NOT metabolized	Compound NOT metabolized	Compound NOT metabolized	Compound NOT metabolized	Compound NOT metabolized	Compound NOT metabolized	Compound NOT metabolized	Compound NOT metabolized	Compound NOT metabolized	Compound NOT metabolized	Compound NOT metabolized			
CC(O)(CS(=O)(=O)c1ccc(F)cc1)C(=O)Nc1ccc(C#N)c(C(F)(F)F)c1 (configuration not stated) [BICALUTAMIDE]	Compound NOT metabolized	Compound NOT metabolized	Compound NOT metabolized	Compound NOT metabolized	Compound NOT metabolized	Compound NOT metabolized	Compound NOT metabolized	Compound NOT metabolized	Compound NOT metabolized	Compound NOT metabolized		Compound NOT metabolized	Compound NOT metabolized		Compound NOT metabolized	Compound NOT metabolized	Compound NOT metabolized	Compound NOT metabolized	Compound metabolized	Compound metabolized
COc1ccc(CN2CCNCC2)c(OC)c1OC.Cl.Cl [TRIMETAZIDINE DIHYDROCHLORIDE]	Compound metabolized	Compound NOT metabolized	Compound NOT metabolized	Compound NOT metabolized	Compound NOT metabolized	Compound NOT metabolized	Compound NOT metabolized	Compound NOT metabolized	Compound NOT metabolized	Compound NOT metabolized		Compound NOT metabolized	Compound NOT metabolized	Compound metabolized	Compound metabolized		Compound NOT metabolized	Compound metabolized	Compound NOT metabolized	Compound metabolized
CCN(CC)CCNC(C(=O)OCCC(C)C)c1ccccc1.Cl.Cl (configuration not stated)	Compound NOT metabolized	Compound NOT metabolized	Compound NOT metabolized	Compound NOT metabolized		Compound NOT metabolized	Compound NOT metabolized	Compound NOT metabolized	Compound NOT metabolized	Compound NOT metabolized	Compound metabolized	Compound NOT metabolized	Compound NOT metabolized			Compound NOT metabolized	Compound NOT metabolized			Compound NOT metabolized
CCOC(=O)C1=C[C@]2(CC)CCCN3CCc4c(n1c1ccccc41)[C@@H]32 [VINPOCETINE]	Compound NOT metabolized	Compound NOT metabolized	Compound NOT metabolized	Compound NOT metabolized	Compound metabolized	Compound NOT metabolized	Compound NOT metabolized	Compound NOT metabolized	Compound NOT metabolized	Compound NOT metabolized		Compound NOT metabolized	Compound NOT metabolized	Compound NOT metabolized	Compound NOT metabolized	Compound NOT metabolized	Compound NOT metabolized	Compound NOT metabolized	Compound NOT metabolized	
CC(C)NCC(O)c1ccc(NS(C)(=O)=O)cc1 (configuration not stated) [SOTALOL]	Compound NOT metabolized	Compound NOT metabolized	Compound NOT metabolized	Compound NOT metabolized		Compound NOT metabolized	Compound NOT metabolized		Compound NOT metabolized	Compound NOT metabolized		Compound NOT metabolized	Compound NOT metabolized	Compound NOT metabolized	Compound metabolized	Compound metabolized	Compound NOT metabolized	Compound NOT metabolized	Compound NOT metabolized	Compound NOT metabolized
CCOc1ccc(NC(C)=O)cc1 [PHENACETIN]	Compound NOT metabolized	Compound NOT metabolized	Compound NOT metabolized	Compound NOT metabolized	Compound NOT metabolized	Compound NOT metabolized	Compound NOT metabolized	Compound NOT metabolized	Compound NOT metabolized	Compound NOT metabolized		Compound NOT metabolized	Compound NOT metabolized	Compound NOT metabolized	Compound NOT metabolized	Compound NOT metabolized	Compound NOT metabolized	Compound NOT metabolized	Compound NOT metabolized	Compound NOT metabolized
CC(C)c1nc(N(C)S(C)(=O)=O)nc(-c2ccc(F)cc2)c1/C=C/[C@@H](O)C[C@@H](O)CC(=O)[O-].CC(C)c1nc(N(C)S(C)(=O)=O)nc(-c2ccc(F)cc2)c1/C=C/[C@@H](O)C[C@@H](O)CC(=O)[O-].[Ca+2] [ROSUVASTATIN CALCIUM]	Compound NOT metabolized	Compound NOT metabolized		Compound NOT metabolized	Compound NOT metabolized	Compound NOT metabolized	Compound NOT metabolized	Compound NOT metabolized	Compound NOT metabolized	Compound NOT metabolized		Compound NOT metabolized	Compound NOT metabolized	Compound NOT metabolized	Compound NOT metabolized	Compound NOT metabolized	Compound NOT metabolized	Compound NOT metabolized	Compound NOT metabolized	Compound NOT metabolized
Cc1ccc(S(=O)(=O)NC(=O)NN2CCCCCC2)cc1 [TOLAZAMIDE]	Compound metabolized			Compound NOT metabolized	Compound metabolized	Compound NOT metabolized	Compound NOT metabolized	Compound NOT metabolized	Compound NOT metabolized	Compound NOT metabolized		Compound NOT metabolized	Compound NOT metabolized	Compound metabolized	Compound metabolized	Compound metabolized	Compound NOT metabolized	Compound metabolized	Compound NOT metabolized	Compound metabolized
